Measured values reported in ChEMBL document CHEMBL4819153, “l-Hypaphorine and d-hypaphorine: Specific antiacetylcholinesterase activity in rat brain tissue” (Bioorg Med Chem Lett, 2021).

Legend:
[1] = Solubility in water; type: physicochemical; conditions: buffer
Acetylcholinesterase [2] = molecular target: T1, Acetylcholinesterase (Rattus norvegicus, UniProt P37136); assay: Inhibition of AChE in rat brain Hippocampus; type: tissue-based
T1 sequence (P37136 whole entry): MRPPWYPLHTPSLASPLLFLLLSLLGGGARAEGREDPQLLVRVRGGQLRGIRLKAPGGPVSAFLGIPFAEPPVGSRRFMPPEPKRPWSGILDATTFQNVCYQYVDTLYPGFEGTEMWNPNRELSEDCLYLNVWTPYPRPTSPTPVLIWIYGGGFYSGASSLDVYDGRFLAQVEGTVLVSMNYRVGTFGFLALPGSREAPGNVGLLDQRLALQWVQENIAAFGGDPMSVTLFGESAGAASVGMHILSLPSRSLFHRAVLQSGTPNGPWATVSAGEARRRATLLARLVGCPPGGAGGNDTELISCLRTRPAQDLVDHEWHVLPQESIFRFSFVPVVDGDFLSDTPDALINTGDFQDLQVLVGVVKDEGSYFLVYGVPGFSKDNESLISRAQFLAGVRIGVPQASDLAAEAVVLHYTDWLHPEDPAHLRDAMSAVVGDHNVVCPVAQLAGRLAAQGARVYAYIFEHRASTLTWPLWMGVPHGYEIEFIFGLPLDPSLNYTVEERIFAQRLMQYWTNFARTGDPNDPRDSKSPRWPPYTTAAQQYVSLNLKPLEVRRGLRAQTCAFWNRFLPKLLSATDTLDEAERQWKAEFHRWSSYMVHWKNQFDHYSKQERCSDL

Acetylcholinesterase [3] = molecular target: T1, Acetylcholinesterase; assay: Inhibition of AChE in rat brain cortex; type: tissue-based
HaCaT [4] = assay: Cytotoxicity against human HaCaT cells assessed as reduction in cell viability upto 10000 uM incubated for 24 hrs relative to control; type: cell-based
Acetylcholinesterase [5] = molecular target: T1, Acetylcholinesterase; assay: Inhibition of AChE in rat brain Striatum; type: tissue-based
HaCaT [6] = assay: Cytotoxicity against human HaCaT cells assessed as reduction in cell viability upto 10000 uM incubated for 48 hrs relative to control; type: cell-based
Acetylcholinesterase [7] = molecular target: T1, Acetylcholinesterase; assay: Inhibition of AChE in rat brain Cerebellum; type: tissue-based
HaCaT [8] = assay: Cytotoxicity against human HaCaT cells assessed as reduction in cell viability at 10000 uM incubated for 24 hrs relative to control; type: cell-based
HaCaT [9] = assay: Cytotoxicity against human HaCaT cells assessed as reduction in cell viability at 5000 to 10000 uM incubated for 48 hrs relative to control; type: cell-based; conditions: dose 5000-10000 µM
HaCaT [10] = assay: Cytotoxicity against human HaCaT cells assessed as reduction in cell viability incubated for 24 hrs relative to control; type: cell-based
HaCaT [11] = assay: Cytotoxicity against human HaCaT cells assessed as reduction in cell viability incubated for 48 hrs relative to control; type: cell-based

Structure (SMILES)	solubility [1]	IC50 (Acetylcholinesterase [2]) [µM]	IC50 (Acetylcholinesterase [3]) [µM]	Activity (HaCaT [4])	IC50 (Acetylcholinesterase [5]) [µM]	Activity (HaCaT [6])	IC50 (Acetylcholinesterase [7]) [µM]	Activity (HaCaT [8])	Activity (HaCaT [9])	Activity (HaCaT [10]) [%]	Activity (HaCaT [11]) [%]
C[N+](C)(C)[C@H](Cc1c[nH]c2ccccc12)C(=O)O.[Cl-]	Soluble	0.32	0.24	Non-Toxic	34.6	Non-Toxic	19.1				
CN(C)C(=O)Oc1cccc([N+](C)(C)C)c1.[Br-] [NEOSTIGMINE BROMIDE]		0.07	0.65		3.17		37.2	Toxic	Toxic		
CN(C)/N=N/c1[nH]cnc1C(N)=O [DACARBAZINE]										29.74	44.46
C[N+](C)(C)[C@@H](Cc1c[nH]c2ccccc12)C(=O)O.[Cl-]	Soluble	> 1000	> 1000	Non-Toxic	> 1000	Non-Toxic	18.6				
